Measurements published in patent publication US20240139185A1, “COMPOUNDS THAT PARTICIPATE IN COOPERATIVE BINDING AND USES THEREOF” (Revolution Medicines, Inc., priority 2018, published 2024).
Like-named read-outs stand apart in the source and are kept apart here.

Legend:
[1] = target: T1, BRAF-GTP-KRAS-G12C complex (Homo sapiens, UniProt P01116+P62937, G12C); assay: KRAS-BRAF complex disruption through competition with CYPA-compound by TR-FRET; conditions: biochemical BRAF-KRAS G12C-GTP disruption assay EC50, with CYPA
T1 construct: 50 nM of His6-KRas G12C-GTP (1-169); 500 nM of tagless CypA (1-165)
Experimental: In this example, TR-FRET was used to measure the compound-facilitated disruption of a KRAS-BRAF complex. A mixture of tagless Cyclophilin A, His6-KRAS G12C-GMP-PNP, and GST-BRAF RAS binding domain was added to a 384-well assay plate containing compounds of the invention and incubated for 3 hours. A mixture of Anti-His Eu-W1024 and anti-GST allophycocyanin was then added and the reaction was incubated for an additional 1.5 hours. TR-FRET signal was read on an EnVision microplate reader (Perkin Elmer, Ex 320 nm, Em 665/615 nm). Compounds that facilitate disruption of a KRAS_BRAF complex were identified as those eliciting a decrease in the TR-FRET ratio relative to DMSO control wells. To determine the presenter-dependence of the compound-mediated KRAS-BRAF complex disruption, Cyclophilin A was left out of the initial incubation (see Table 5). To determine G12C specificity of the compound-mediated KRAS-BRAF complex disruption, wild-type KRAS was used instead of G12C KRAS (see Table 5).
Reagents and Instrument • Tagless CYPA; 519 μM in PBS buffer, pH 7.4 • GST BRAF; 110 μM in PBS buffer, pH 7.4 • His6-KRASG12C-GMP-PNP; 50 μM in PBS buffer, pH 7.4 • His6-KRASWT-GMP-PNP; 40 μM in PBS buffer, pH 7.4 • Anti-His Eu-W1024 (LANCE® Eu-W1024; Perkin Elmer) • Anti-GST allophycocyanin (Anti-GST IgG conjugated to SureLight®-Allophycocyanin; Perkin Elmer; Product Number AD0059G) • Test compounds, 10 mM in 100% DMSO • EnVision (Perkin Elmer) • Combi MultiDrop liquid dispenser with 8-channel small volume cassette • 384-well ProxiPlate (black)
Experimental Protocol • 1. Use Mosquito to dispense 100 nL/well of compounds (varying concentration in […]) into 384-well black ProxiPlate to make assay-ready-plate (ARP). • 2. Make assay buffer containing 25 mM Hepes pH 7.3, 100 mM NaCl, 5 mM MgCl2, 0.05% BSA, and 0.002% Tween-20. • 3. Make PRE-MIX A: delivers final concentrations of 50 nM of His6-KRas G12C-GTP (1-169) and 500 nM of tagless CypA (1-165) in assay buffer. • a. For presenter dependence experiments, omit addition of tagless CypA • b. For G12C/wt specificity experiments, substitute His6-KRas WT-GTP (1-169) for His6-KRas G12C-GTP (1-169) • 4. Use MultiDrop Combi to dispense PRE-MIX A into ARP, 7 μl/well. Incubate 3 hr at room temperature. • 5. Make PRE-MIX B: delivers final concentrations of 10 nM of anti-His Eu-W1024 and 50 nM of anti-GST APC. • 6. Use MultiDrop Combi to dispense PRE-MIX B into ARP, 3 μl/well. Shake briefly on Combi and incubate 1.5 hr at room temperature. • 7. Read on EnVision (Ex: 320 nm; Em1: 615 nm; Em2: 665 nm). • 8. Data is processed using Dotmatics. Curves are fit using a 4-parameter non-linear fit to determine the EC50 value for formation of the ternary complex.

[2] = tested on: pERK in H358 cells; assay: pERK inhibition in H358 cells; format: cell-based, human; conditions: read-out: Cellular pERK inhibition
Experimental: H358 cells (5500 cells) derived from a human lung cancer were plated in a 96 well plate in media (100 uL, RPMI with 10% FBS). After 24 hours, cells were treated for 4 hours with compound or DMSO. Cells were washed twice with room temperature TBS (200 uL) and fixed for 20 minutes with 4% paraformaldehyde diluted with TBS (150 uL). Cells were washed four times for five minutes with 0.1% TritonX/TBS (150 uL) to permeabilize the membrane. Cells were incubated with TBS blocking buffer (100 uL) at room temperature for 60 minutes. Primary antibody (Phospho-p44/42 MAPK (Erk1/2) (Thr202/Tyr204) (D13.14.4E) XP® Rabbit mAb #4370, Cell Signaling Technology; 1:200) was added, and the cells were incubated overnight at 4 C. The cells were washed four times for five minutes with 0.1% Tween 20/TBS (150 uL). Secondary antibody (IRDye® 800CW Goat-Anti-Rabbit IgG, Li-Cor Biosciences; 1:1000) and DRAQ5™ (Invitrogen; 1:2000) was added, and the cells were incubated for 1 hour at room temperature. The cells were washed four times for five minutes with 0.1% Tween 20/TBS (150 uL) and scanned using the LICOR (700 and 800 nm).

[3] = target: cyclophilin A (CYPA) (Homo sapiens, UniProt P62937); assay: CYPA-compound binary complex formation by SPR; conditions: read-out: CYPA Binding Affinity
Experimental: In order to determine the affinity of compounds of the invention for cyclophilin A (CYPA), we employed surface plasmon resonance binding analysis using the following reagents, instruments and protocol as supplied by the instrument manufacturer.
Reagents and Instrument • 1. Instrument: Biacore S200 (GE Healthcare Life Sciences) • 2. Running buffer: 1×HBS-P+ (1×HBS supplemented with 0.05% Tween20), pH7.4, and 2% DMSO. • 3. Ligand: CypA-Avi • 4. Analyte: Serial dilution of WDB compounds from 50 μM to 0 μM, 2-fold dilution, 10 points (10 mM stock concentration). • 5. Sensor kit: Biotin CAPture Kit (BR28-9202-34, GE Healthcare Life Sciences) • 6. Regeneration buffer: 1 volume of 1 M NaOH and 3 volumes of 8 M guanidine hydrochloride (supplied with CAPture Kit, BR28-9202-34, GE Healthcare Life Sciences)
Experimental Procedure • 1. Capture of CAPreagent: 2 μl/min for 60 seconds. • 2. Immobilization of ligand CypA: Use Fc1 as the reference cell; immobilize CypA at 4 μg/ml using 5 μl/min flowrate on Fc2 (60s), Fc3 (80s) and Fc4 (80s), respectively. • 3. Binding of analytes: Inject WDB compound dilutions sequentially at 50 μl/min for association of 60 seconds. And then let it dissociates in buffer at 50 μl/min for 60 seconds. • 4. Regeneration: 2 injections of regeneration buffer at 30 μl/min for 60 seconds to regenerate the chip surface. • 5. Solvent correction: Run solvent correction at beginning and the end of the run. If run more than 6 compounds, add additional solvent correction every 6 compounds. • 6. Data fitting with built-in Biacore Evaluation Software: Steady-state fitting.

[4] = Homo sapiens, NCI-H358, 4 hours treatment

Row | Compound | EC50 [1] [µM] | IC50 ([2]; 4 hours treatment) [µM] | Kd [3] [µM] | IC50 [2, 4] [µM]
1 | CC1COC(=O)C2CCCN(N2)C(=O)C(NC(=O)C(C(C)C)N(C)C(=O)C2CN(C(=O)CCl)C2)Cc2cc(O)cc(c2)-c2ccc3c(c2)N(C1)CC3(C)C#N (mixture of isomers) [Compound 224] | ≤ 0.5 | 1 to 10 | ≤ 5 | –
2 | CC1COC(=O)C2CCCN(N2)C(=O)C(NC(=O)C(C(C)C)N(C)C(=O)C2CN(C(=O)CCl)C2)Cc2cc(O)cc(c2)-c2ccc3c(c2)N(C1)CC3(C)CCC#N (mixture of isomers) [Compound 225] | ≤ 0.5 | 1 to 10 | ≤ 5 | –
3 | CC(C)[C@@H](C(=O)N[C@H]1Cc2cc(O)cc(c2)-c2ccc3c(C(C)(C)C#N)cn(c3c2)CC(CO)COC(=O)[C@@H]2CCCN(N2)C1=O)N(C)C(=O)C1CN(C(=O)CCl)C1 (single isomer, unassigned) [Compound 21] | 0.5 to 5 | > 10 | > 15 | –
4 | CC(C)[C@@H](C(=O)N[C@H]1Cc2cc(O)cc(c2)-c2ccc3c(C(C)(C)C#N)cn(c3c2)CC(CO)COC(=O)[C@@H]2CCCN(N2)C1=O)N(C)C(=O)C1CN(C(=O)CCl)C1 (single isomer, unassigned) [Compound 22] | ≤ 0.5 | > 10 | 5 to 15 | –
5 | COCC1COC(=O)C2CCCN(N2)C(=O)C(NC(=O)C(C(C)C)N(C)C(=O)C2CN(C(=O)CCl)C2)Cc2cc(O)cc(c2)-c2ccc3c(C(C)(C)C#N)cn(c3c2)C1 (single isomer, unassigned) [Compound 24] | ≤ 0.5 | ≤ 1 | 5 to 15 | –
6 | CC(C)C(C(=O)NC1Cc2cc(O)cc(c2)-c2ccc3c(C(C)(C)C#N)cn(c3c2)CC(F)COC(=O)C2CCCN(N2)C1=O)N(C)C(=O)C1CN(C(=O)CCl)C1 (single isomer, unassigned) [Compound 25] | ≤ 0.5 | > 10 | 5 to 15 | –
7 | CC(C)C(C(=O)NC1Cc2cc(O)cc(c2)-c2ccc3c(C(C)(C)C#N)cn(c3c2)CC(C(F)F)COC(=O)C2CCCN(N2)C1=O)N(C)C(=O)C1CN(C(=O)CCl)C1 (single isomer, unassigned) [Compound 36] | ≤ 0.5 | 1 to 10 | 5 to 15 | –
8 | CC(C)[C@@H](C(=O)N[C@H]1Cc2cc(O)cc(c2)-c2ccc3c(C(C)(C)C#N)cn(c3c2)CC(C(F)F)COC(=O)[C@@H]2CCCN(N2)C1=O)N(C)C(=O)C1CN(C(=O)CCl)C1 (single isomer, unassigned) [Compound 37] | ≤ 0.5 | 1 to 10 | 5 to 15 | –
9 | CC(C)C(C(=O)NC1Cc2cc(O)cc(c2)-c2ccc3c(C(C)(C)C#N)cn(c3c2)CC(Cl)COC(=O)C2CCCN(N2)C1=O)N(C)C(=O)C1CN(C(=O)CCl)C1 (single isomer, unassigned) [Compound 41] | ≤ 0.5 | 1 to 10 | ≤ 5 | –
10 | CC1COC(=O)[C@@H]2CCCN(N2)C(=O)[C@@H](NC(=O)[C@H](C(C)C)N(C)C(=O)C2CN(C(=O)CCl)C2)Cc2cc(O)cc(c2)-c2ccc3c(S(C)(=O)=O)cn(c3c2)C1 (single isomer, unassigned) [Compound 111] | ≤ 0.5 | > 10 | 5 to 15 | –
11 | CC1COC(=O)[C@@H]2CCCN(N2)C(=O)[C@@H](NC(=O)[C@H](C(C)C)N(C)C(=O)C2CN(C(=O)CCl)C2)Cc2cc(O)cc(c2)-c2ccc3c(c2)N(CCO3)C1 (single isomer, unassigned) [Compound 183] | 0.5 to 5 | 1 to 10 | 5 to 15 | –
12 | CC1COC(=O)[C@@H]2CCCN(N2)C(=O)[C@@H](NC(=O)[C@H](C(C)C)N(C)C(=O)C2CN(C(=O)CCl)C2)Cc2cc(O)cc(c2)-c2ccc3c(c2)N(CCO3)C1 (single isomer, unassigned) [Compound 184] | 0.5 to 5 | > 10 | ≤ 5 | –
13 | C=CC(=O)N1CCN([C@H](C(=O)N[C@H]2Cc3cc(O)cc(c3)-c3ccc4nc(C)n(c4c3)CC(C)(C)COC(=O)[C@@H]3CCCN(N3)C2=O)C(C)C)C1=O [Compound 1, (2S)-2-(3-acryloyl-2-oxoimidazolidin-1-yl)-N-((6^3S,4S)-2^5-hydroxy-1^2,10,10-trimethyl-5,7-dioxo-6^1,6^2,6^3,6^4,6^5,6^6-hexahydro-1^1H-8-oxa-1(6,1)-benzo[d]imidazola-6(1,3)-pyridazina-2(1,3)-benzenacycloundecaphane-4-yl)-3-methylbutanamide] | ≤ 0.5 | – | 5 to 15 | > 10
14 | CC(C)[C@@H](C(=O)N[C@H]1Cc2cc(O)cc(c2)-c2ccc3c(C#N)cn(c3c2)CC(C)(C)CNC(=O)[C@@H]2CCCN(N2)C1=O)N(C)C(=O)C1CN(C(=O)CCl)C1 [Compound 3, 1-(2-chloroacetyl)-N-((2S)-1-(((6^3S,4S)-1^3-cyano-2^5-hydroxy-10,10-dimethyl-5,7-dioxo-6^1,6^2,6^3,6^4,6^5,6^6-hexahydro-1^1H-8-aza-1(6,1)-indola-6(1,3)-pyridazina-2(1,3)-benzenacycloundecaphane-4-yl)amino)-3-methyl-1-oxobutan-2-yl)-N-methylazetidine-3-carboxamide] | ≤ 0.5 | – | ≤ 5 | > 10
15 | C=CC(=O)N1CCN(C(C(=O)NC2Cc3cc(O)cc(c3)-c3ccc4c(C(C)(C)C#N)cn(c4c3)CC(C)(C)COC(=O)C3CCCN(N3)C2=O)C(C)C)C(=O)C1 (stereo not drawn) [Compound 14] | > 5 | > 10 | > 15 | –
16 | CC1COC(=O)C2CCCN(N2)C(=O)C(NC(=O)C(C(C)C)N(C)C(=O)C2CN(C(=O)C(C)Cl)C2)Cc2cc(O)cc(c2)-c2ccc3c(C(C)(C)C#N)cn(c3c2)C1 (stereo not drawn) [Compound 18] | 0.5 to 5 | > 10 | > 15 | –
